From patent publication US20240294541A1, “COMPOUNDS CONSTITUTING C20-MODIFIED SALINOMYCIN DERIVATIVES, A METHOD FOR OBTAINING THE SAME, A COMPOSITION CONTAINING THE SAME AND A USE OF SAID COMPOUNDS” (FILECLO SPOLKA Z OGRANICZONA ODPOWIEDZIALNOSCIA, priority 2021, published 2024)

Legend:
Assay type in all cases: cell-based
[1] = tested on: A2780Cis (cisplatin-resistant human ovarian cancer); assay: In vitro cytotoxicity, SRB assay, A2780Cis; conditions: for IC50: Homo sapiens, A2780cis, read-out: IC50 (nM) A2780Cis
[2] = tested on: BALB/3T3 (normal mouse fibroblasts); assay: In vitro cytotoxicity, SRB assay, normal BALB/3T3 fibroblasts; conditions: Table 5; BALB/3T3 normal mouse fibroblasts; read-out: IC50 (nM) BALB3T3 normal cells
[3] = tested on: MV-4-11 (human biphenotypic leukaemia); assay: In vitro cytotoxicity, MTT assay, MV-4-11; conditions: for IC50: Homo sapiens, MV4-11, read-out: IC50 (nM) MV4-11
cancer cells = assay: In vitro cytotoxic activity on the panel of cancer cell lines (MTT/SRB), general statements; conditions: Tables 3.1, 3.2, 4 and 5; parent compound salinomycin

SMILES | SI A2780Cis [1] | IC50 [1] | IC50 [2] | SI MV4-11 [3] | IC50 [3] | anti-proliferative effect compared to that of the parent compound (cancer cells)
CC[C@@H](C(=O)[C@@H](C)[C@@H](O)[C@H](C)[C@@H]1O[C@@H]([C@@H](CC)C(=O)O)CC[C@@H]1C)[C@H]1O[C@]2(C=C[C@@H](NC(=O)C3CCC3)[C@]3(CC[C@@](C)([C@H]4CC[C@](O)(CC)[C@H](C)O4)O3)O2)[C@H](C)C[C@@H]1C [FLC-00463-1•Na] | 266.3 | 0.72 nM | 191 nM | 96.5 | 1.98 nM | several times more potent compared to that of the parent compound
CC[C@@H](C(=O)[C@@H](C)[C@@H](O)[C@H](C)[C@@H]1O[C@@H]([C@@H](CC)C(=O)O)CC[C@@H]1C)[C@H]1O[C@]2(C=C[C@@H](NC(=O)c3ccc(F)cc3)[C@]3(CC[C@@](C)([C@H]4CC[C@](O)(CC)[C@H](C)O4)O3)O2)[C@H](C)C[C@@H]1C [FLC-00470-1•Na] |  |  |  |  |  | several times more potent compared to that of the parent compound
CC[C@@H](C(=O)[C@@H](C)[C@@H](O)[C@H](C)[C@@H]1O[C@@H]([C@@H](CC)C(=O)O)CC[C@@H]1C)[C@H]1O[C@]2(C=C[C@@H](NC(=O)N[C@@H](C)C(C)(C)C)[C@]3(CC[C@@](C)([C@H]4CC[C@](O)(CC)[C@H](C)O4)O3)O2)[C@H](C)C[C@@H]1C [FLC-00606-1•Na] | ≈5240 | < 0.01 nM | 52.4 nM | ≈5240 | < 0.01 nM | several times more potent compared to that of the parent compound
CCC(CC)NC(=S)N[C@@H]1C=C[C@]2(O[C@H]([C@@H](CC)C(=O)[C@@H](C)[C@@H](O)[C@H](C)[C@@H]3O[C@@H]([C@@H](CC)C(=O)O)CC[C@@H]3C)[C@@H](C)C[C@H]2C)O[C@@]12CC[C@@](C)([C@H]1CC[C@](O)(CC)[C@H](C)O1)O2 [FLC-00771-1•Na] | ≈8000 | < 0.01 nM | 80 nM | ≈8000 | < 0.01 nM | several times more potent compared to that of the parent compound
CC[C@@H](C(=O)[C@@H](C)[C@@H](O)[C@H](C)[C@@H]1O[C@@H]([C@@H](CC)C(=O)O)CC[C@@H]1C)[C@H]1O[C@]2(C=C[C@@H](NC(=O)C(=O)NCc3ccccc3OC)[C@]3(CC[C@@](C)([C@H]4CC[C@](O)(CC)[C@H](C)O4)O3)O2)[C@H](C)C[C@@H]1C [FLC-00491-1•Na] | 79.2 | 5.19 nM | 411 nM | 65.3 | 6.3 nM | several times more potent compared to that of the parent compound
CC[C@@H](C(=O)[C@@H](C)[C@@H](O)[C@H](C)[C@@H]1O[C@@H]([C@@H](CC)C(=O)O)CC[C@@H]1C)[C@H]1O[C@]2(C=C[C@@H](NC(=O)c3ccc(OC(F)(F)F)cc3)[C@]3(CC[C@@](C)([C@H]4CC[C@](O)(CC)[C@H](C)O4)O3)O2)[C@H](C)C[C@@H]1C [FLC-00486-1•Na] |  |  |  |  |  | several times more potent compared to that of the parent compound
